# Experimental data: ChEMBL document CHEMBL1126597, “Irreversible inactivation of macrophage and brain nitric oxide synthase by L-NG-methylarginine requires NADPH-dependent hydroxylation” (J Med Chem, 1993)
# Target: T1, Nitric oxide synthase, inducible (Mus musculus) (UniProt P29477)
# T1 sequence (whole entry): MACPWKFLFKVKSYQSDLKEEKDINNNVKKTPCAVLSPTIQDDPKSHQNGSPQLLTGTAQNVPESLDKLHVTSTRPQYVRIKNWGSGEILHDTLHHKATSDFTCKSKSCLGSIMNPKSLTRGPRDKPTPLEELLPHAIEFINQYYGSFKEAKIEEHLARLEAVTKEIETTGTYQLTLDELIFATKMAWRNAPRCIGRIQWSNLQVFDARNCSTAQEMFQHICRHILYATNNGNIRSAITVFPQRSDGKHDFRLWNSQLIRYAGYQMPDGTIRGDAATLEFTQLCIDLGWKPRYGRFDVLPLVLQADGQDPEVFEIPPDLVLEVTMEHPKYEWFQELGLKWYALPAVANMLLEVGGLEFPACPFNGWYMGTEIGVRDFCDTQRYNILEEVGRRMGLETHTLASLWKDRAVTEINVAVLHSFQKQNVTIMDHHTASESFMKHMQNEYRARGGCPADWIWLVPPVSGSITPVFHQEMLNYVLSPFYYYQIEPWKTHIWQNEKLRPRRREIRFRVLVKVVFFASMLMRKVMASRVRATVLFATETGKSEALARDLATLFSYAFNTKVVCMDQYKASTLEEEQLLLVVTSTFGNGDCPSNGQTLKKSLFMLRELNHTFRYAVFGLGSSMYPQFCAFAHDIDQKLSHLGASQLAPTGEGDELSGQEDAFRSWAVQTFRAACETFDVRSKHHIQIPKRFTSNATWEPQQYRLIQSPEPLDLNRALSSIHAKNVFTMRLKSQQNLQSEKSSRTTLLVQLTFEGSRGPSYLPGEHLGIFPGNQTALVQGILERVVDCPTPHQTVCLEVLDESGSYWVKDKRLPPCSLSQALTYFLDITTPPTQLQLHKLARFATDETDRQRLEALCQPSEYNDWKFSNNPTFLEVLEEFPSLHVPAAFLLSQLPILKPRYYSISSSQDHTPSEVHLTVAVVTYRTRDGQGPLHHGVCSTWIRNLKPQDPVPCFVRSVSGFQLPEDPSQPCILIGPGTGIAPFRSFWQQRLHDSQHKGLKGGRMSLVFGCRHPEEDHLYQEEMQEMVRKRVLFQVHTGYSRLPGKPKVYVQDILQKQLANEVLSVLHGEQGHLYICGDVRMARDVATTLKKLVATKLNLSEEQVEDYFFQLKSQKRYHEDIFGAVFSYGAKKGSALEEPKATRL
# Assay: Inhibitory against murine macrophage nitric oxide synthase (mNOS) at 10 uM
smiles,measurement,value
CNC(=N)NCCC[C@H](N)C(=O)O,kinact,0.08 min⁻¹
CN(O)C(=N)NCCCC(N)C(=O)O (configuration not stated),kinact,0.1 min⁻¹
